Measurements taken from US11286242B2 (priority 2018, dated 2022).

Key:
Phakopsora pachyrhizi = Phakopsora pachyrhizi test in soybean, preventive spray; format: in vivo; conditions: preventive spray on soybean plants, inoculated one day after treatment, greenhouse 25° C., 90% relative humidity, read-out: control (efficacy, disease severity rating) compared to the untreated check
Protocol: Example 8: Phakopsora pachyrhizi Test in Soybean
Compounds were dissolved in 2% DMSO/Acetone & then mixed with water to the calibrated spray volume of 50 mL and poured into the spray bottles for further applications.
To test the preventive activity of compounds, healthy young soybean plants raised in the greenhouse were sprayed with active compound preparation at the stated application rates inside the spray cabinets using hallowcone nozzles. One day after treatment, the plants were inoculated with spore suspension containing 2.1×10^6 Phakopsora pachyrhizi inoculum. The inoculated plants were then kept in greenhouse chamber at 25° C. temperature & 90% relative humidity for disease expression.
A visual assessment of compound's performance was carried out by rating the disease severity (0-100% scale) on treated plants on 3, 7, 10 & 15 days after application. Efficacy (% control) of the compounds was calculated by comparing the disease rating in the treatment with the one of the untreated control. The sprayed plants were also assessed for compound's plant compatibility by recording symptoms like necrosis, chlorosis & stunting.

Pyricularia oryzae = assay: microbe, parasite or virus in culture; format: cell-based; conditions: 168 h, read-out: control compared to the untreated check
Alternaria solani = Alternaria solani (early blight of tomato/potato) radial mycelial growth on Potato Dextrose Agar; format: cell-based; conditions: 168 h, Potato Dextrose Agar, 25° C., 60% relative humidity, seven days, read-out: control compared to the untreated check
Protocol: Example 4: Alternaria solani (Early Blight of Tomato/Potato)
Compounds were dissolved in 0.3% DMSO & then added to Potato Dextrose Agar medium just prior to dispensing it into petri dishes. 5 mL medium with compound in the desired concentration was dispensed into 60 mm sterile petri-plates. After solidification each plate was seeded with 5 mm size mycelial disc taken form periphery of actively growing virulent culture plate. Plates were incubated in growth chambers at 25° C. temperature and 60% relative humidity for seven days and radial growth was measured.

| SMILES | pest or weed control at 500 ppm (Phakopsora pachyrhizi) [%] | inhibition of growth at 300 ppm (Pyricularia oryzae) [%] | inhibition of growth at 300 ppm (Alternaria solani) [%] |
| --- | --- | --- | --- |
| CS(=O)(=NC(=O)c1ccc(-c2noc(C(F)(F)F)n2)cc1)c1ccccc1F (centres unmarked) [Compound 3, N-((2-fluorophenyl)(methyl)(oxo)-λ^6-sulfanylidene)-4-(5-(trifluoromethyl)-1,2,4-oxadiazol-3-yl)benzamide] | > 90 | > 70 | – |
| CS(=O)(=Nc1ccc(-c2noc(C(F)(F)F)n2)cc1)c1ccc(C(F)(F)F)cc1 (centres unmarked) [Compound 19, methyl((4-(5-(trifluoromethyl)-1,2,4-oxadiazol-3-yl)phenyl)imino)(4-(trifluoromethyl)phenyl)-λ^6-sulfanone] | > 90 | > 70 | – |
| CS(=O)(=NCc1ccc(-c2noc(C(F)(F)F)n2)cc1)c1ccccn1 (centres unmarked) [Compound 27, methyl(pyridin-2-yl)((4-(5-(trifluoromethyl)-1,2,4-oxadiazol-3-yl)benzyl)imino)-λ^6-sulfanone] | > 90 | > 70 | – |
| CS(=O)(Cc1cccc(F)c1F)=NC(=O)c1ccc(-c2noc(C(F)(F)F)n2)cc1 (centres unmarked) [Compound 33, N-((2,3-difluorobenzyl)(methyl)(oxo)-λ^6-sulfaneylidene)-4-(5-(trifluoromethyl)-1,2,4-oxadiazol-3-yl)benzamide] | – | – | > 70 |
| CS(=O)(=NC(=O)c1cccc(-c2noc(C(F)(F)F)n2)c1)c1nccs1 (centres unmarked) [Compound 73, N-(methyl(oxo)(thiazol-2-yl)-λ^6-sulfaneylidene)-3-(5-(trifluoromethyl)-1,2,4-oxadiazol-3-yl)benzamide] | – | – | > 70 |
| CS(=O)(Cc1ccccc1F)=Nc1ccc(-c2noc(C(F)(F)F)n2)cc1 (centres unmarked) [Compound 94, (2-fluorobenzyl)(methyl)((4-(5-(trifluoromethyl)-1,2,4-oxadiazol-3-yl)phenyl)imino)-λ^6-sulfanone] | – | – | > 70 |
| COc1cccc(S(C)(=O)=Nc2ccc(-c3noc(C(F)(F)F)n3)cc2)c1 (centres unmarked) [Compound 106, (3-methoxyphenyl)(methyl)((4-(5-(trifluoromethyl)-1,2,4-oxadiazol-3-yl)phenyl)imino)-λ^6-sulfanone] | – | > 70 | – |
| Cc1cccc(S(C)(=O)=Nc2cccc(-c3noc(C(F)(F)F)n3)c2)c1 (centres unmarked) [Compound 114, methyl(m-tolyl)((3-(5-(trifluoromethyl)-1,2,4-oxadiazol-3-yl)phenyl)imino)-λ^6-sulfanone] | – | > 70 | – |
| CS(=O)(=Nc1cccc(-c2noc(C(F)(F)F)n2)c1)c1ccccc1 (centres unmarked) [Compound 122, methyl(phenyl)((3-(5-(trifluoromethyl)-1,2,4-oxadiazol-3-yl)phenyl)imino)-λ^6-sulfanone] | – | > 70 | – |
| CS(=O)(=Nc1ccc(-c2noc(C(F)(F)F)n2)nc1)c1ccc(C(F)(F)F)cc1 (centres unmarked) [Compound 124, methyl((6-(5-(trifluoromethyl)-1,2,4-oxadiazol-3-yl)pyridin-3-yl)imino)(4-(trifluoromethyl)phenyl)-λ^6-sulfanone] | – | > 70 | – |
| COc1cccc(S(C)(=O)=Nc2ccc(-c3noc(C(F)(F)F)n3)nc2)c1 (centres unmarked) [Compound 127, (3-methoxyphenyl)(methyl)((6-(5-(trifluoromethyl)-1,2,4-oxadiazol-3-yl)pyridin-3-yl)imino)-λ^6-sulfanone] | – | > 70 | – |
| Cc1ccc(S(C)(=O)=Nc2ccc(-c3noc(C(F)(F)F)n3)cc2)cc1 (centres unmarked) [Compound 130, methyl(p-tolyl)((4-(5-(trifluoromethyl)-1,2,4-oxadiazol-3-yl)phenyl)imino)-λ^6-sulfanone] | – | > 70 | – |
| CS(=O)(=NCc1cccc(-c2noc(C(F)(F)F)n2)c1)c1ccc(F)c(F)c1 (centres unmarked) [Compound 141, (3,4-difluorophenyl)(methyl)((3-(5-(trifluoromethyl)-1,2,4-oxadiazol-3-yl)benzyl)imino)-sulfanone] | – | > 70 | – |
| CS(=O)(=NCc1cccc(-c2noc(C(F)(F)F)n2)c1)c1ccc(Cl)cc1 (centres unmarked) [Compound 143, (4-chlorophenyl)(methyl)((3-(5-(trifluoromethyl)-1,2,4-oxadiazol-3-yl)benzyl)imino)-λ^6-sulfanone] | – | > 70 | – |
| CS(=O)(=NCc1cccc(-c2noc(C(F)(F)F)n2)c1)c1nccs1 (centres unmarked) [Compound 144, methyl(thiazol-2-yl)((3-(5-(trifluoromethyl)-1,2,4-oxadiazol-3-yl)benzyl)imino)-λ^6-sulfanone] | – | > 70 | – |
| CS(=O)(=NCc1cccc(-c2noc(C(F)(F)F)n2)c1)c1ccc(F)cc1 (centres unmarked) [Compound 145, (4-fluorophenyl)(methyl)((3-(5-(trifluoromethyl)-1,2,4-oxadiazol-3-yl)benzyl)imino)-λ^6-sulfanone] | – | > 70 | – |

| SMILES | pest or weed control at 500 ppm (Phakopsora pachyrhizi) [%] | inhibition of growth at 300 ppm (Pyricularia oryzae) [%] | inhibition of growth at 300 ppm (Alternaria solani) [%] |
| --- | --- | --- | --- |
| CS(=O)(=NCc1cccc(-c2noc(C(F)(F)F)n2)c1)c1cc(F)ccc1Br (centres unmarked) [Compound 146, (2-bromo-5-fluorophenyl)(methyl)((3-(5-(trifluoromethyl)-1,2,4-oxadiazol-3-yl)benzyl)imino)-λ^6-sulfanone] | – | > 70 | – |
| CS(=O)(=NCc1cccc(-c2noc(C(F)(F)F)n2)c1)c1ccc(Br)cc1F (centres unmarked) [Compound 147, (4-bromo-2-fluorophenyl)(methyl)((3-(5-(trifluoromethyl)-1,2,4-oxadiazol-3-yl)benzyl)imino)-λ^6-sulfanone] | – | > 70 | – |
| O=S1(=NCc2cccc(-c3noc(C(F)(F)F)n3)c2)CCOCC1 [Compound 149, 4-((3-(5-(trifluoromethyl)-1,2,4-oxadiazol-3-yl)benzyl)imino)-1,4λ^6-oxathiane 4-oxide] | – | > 70 | – |
| CC(C)S(=O)(=NCc1ccc(-c2noc(C(F)(F)F)n2)cc1)c1ccccc1 (centres unmarked) [Compound 151, isopropyl(phenyl)((4-(5-(trifluoromethyl)-1,2,4-oxadiazol-3-yl)benzyl)imino)-λ^6-sulfanone] | – | > 70 | – |
| CC(C)S(=O)(=NCc1ccc(-c2noc(C(F)(F)F)n2)cc1)c1ccc(Cl)cc1 (centres unmarked) [Compound 152, (4-chlorophenyl)(isopropyl)((4-(5-(trifluoromethyl)-1,2,4-oxadiazol-3-yl)benzyl)imino)-λ^6-sulfanone] | – | > 70 | – |
| COc1cccc(S(=O)(=O)NC(=O)c2ccc(-c3noc(C(F)(F)F)n3)cc2)c1 [Compound 158, N-((3-methoxyphenyl)sulfonyl)-4-(5-(trifluoromethyl)-1,2,4-oxadiazol-3-yl)benzamide] | – | – | > 70 |
| O=C(NS(=O)(=O)c1ccc(Br)cc1)c1ccc(-c2noc(C(F)(F)F)n2)cc1 [Compound 162, N-((4-bromophenyl)sulfonyl)-4-(5-(trifluoromethyl)-1,2,4-oxadiazol-3-yl)benzamide] | – | – | > 70 |
| CS(=O)(=Nc1ccc(-c2noc(C(F)(F)F)n2)cc1F)c1ccccc1F (centres unmarked) [Compound 165, ((2-fluoro-4-(5-(trifluoromethyl)-1,2,4-oxadiazol-3-yl)phenyl)imino)(2-fluorophenyl)(methyl)-λ^6-sulfanone] | – | > 70 | – |
| CS(=O)(=Nc1ccc(-c2noc(C(F)(F)F)n2)cc1F)c1ccccc1 (centres unmarked) [Compound 166, ((2-fluoro-4-(5-(trifluoromethyl)-1,2,4-oxadiazol-3-yl)phenyl)imino)(methyl)(phenyl)-λ^6-sulfanone] | – | > 70 | – |
| CS(=O)(=Nc1ccc(-c2noc(C(F)(F)F)n2)cc1F)c1ccc(Cl)cc1 (centres unmarked) [Compound 167, (4-chlorophenyl)((2-fluoro-4-(5-(trifluoromethyl)-1,2,4-oxadiazol-3-yl)phenyl)imino)(methyl)-λ^6-sulfanone] | – | > 70 | – |
| CS(=O)(=Nc1ccc(-c2noc(C(F)(F)F)n2)cc1F)c1cccc(F)c1 (centres unmarked) [Compound 169, ((2-fluoro-4-(5-(trifluoromethyl)-1,2,4-oxadiazol-3-yl)phenyl)imino)(3-fluorophenyl)(methyl)-λ^6-sulfanone] | – | > 70 | – |
| COc1ccc(S(C)(=O)=Nc2ccc(-c3noc(C(F)(F)F)n3)cc2F)cc1 (centres unmarked) [Compound 171, ((2-fluoro-4-(5-(trifluoromethyl)-1,2,4-oxadiazol-3-yl)phenyl)imino)(4-methoxyphenyl)(methyl)-λ^6-sulfanone] | – | > 70 | – |
| CS(=O)(=NCc1cccc(Cl)c1)c1ccc(-c2noc(C(F)(F)F)n2)cc1 (centres unmarked) [Compound 182, ((3-chlorobenzyl)imino)(methyl)(4-(5-(trifluoromethyl)-1,2,4-oxadiazol-3-yl)phenyl)-λ^6-sulfanone] | – | > 70 | – |
| CS(=O)(=NCc1ccc(F)cc1)c1ccc(-c2noc(C(F)(F)F)n2)cc1 (centres unmarked) [Compound 183] | – | > 70 | – |
| CS(=O)(=NCc1ccc(F)cc1F)c1ccc(-c2noc(C(F)(F)F)n2)cc1 (centres unmarked) [Compound 184, ((2,4-difluorobenzyl)imino)(methyl)(4-(5-(trifluoromethyl)-1,2,4-oxadiazol-3-yl)phenyl)-λ^6-sulfanone] | – | > 70 | – |
| CS(=O)(=NCc1cccc(F)c1)c1ccc(-c2noc(C(F)(F)F)n2)cc1 (centres unmarked) [Compound 185, ((3-fluorobenzyl)imino)(methyl)(4-(5-(trifluoromethyl)-1,2,4-oxadiazol-3-yl)phenyl)-λ^6-sulfanone] | – | > 70 | – |
